# Laboratory results as given in ChEMBL document CHEMBL5321270, “Discovery of Pyrazolone Carbothioamide Derivatives as Inhibitors of the Pdr1-KIX Interaction for Combinational Treatment of Azole-Resistant Candidiasis” (J Med Chem, 2023).
# The source made the active and inactive calls. The calls are words filed in the database; no cut-off is given here.
# Tests used:
# Nakaseomyces glabratus [1] = experiment: Antifungal activity against FLC-resistant Candida glabrata 0161 infected in cyclophosphamide immunosuppressed ICR mouse model assessed as inhibition of fungal growth in kidney at 40 mg/kg,ip administrated for 5 days; type: functional, organism-based; conditions: time 5.0 day
# Nakaseomyces glabratus [2] = experiment: Synergistic antifungal activity against fluconazole-resistant Candida glabrata 0161 assessed as fractional inhibitory concentration index incubated for 48 hrs in presence of fluconazole by checkerboard microdilution method; type: functional
# [3] = Inhibition of fluorescent probe FITC tagged PDR1-KIX domain (unknown origin) protein-protein interaction assessed as inhibition constant incubated for 2 hrs by fluorescence polarization binding assay
# Nakaseomyces glabratus [4] = experiment: Antifungal activity against fluconazole-resistant Candida glabrata 0161 assessed as fluconazole fractional inhibitory concentration incubated for 48 hrs in presence of fluconazole by microplate reader assay; type: functional
# [5] = Aqueous solubility of compound; type: physicochemical
# Nakaseomyces glabratus [6] = experiment: Antifungal activity against fluconazole-resistant Candida glabrata 0161 assessed as fractional inhibitory concentration incubated for 48 hrs in presence of fluconazole by microplate reader assay; type: functional
# Nakaseomyces glabratus [7] = experiment: Antifungal activity against fluconazole-resistant Candida glabrata 0161 assessed as fungal growth inhibition incubated for 48 hrs by microplate reader assay; type: functional
# [8] = Binding affinity to Candida glabrata KIX domain assessed as dissociation constant; parameters: species or system Nakaseomyces glabratus
# Nakaseomyces glabratus [9] = experiment: Antifungal activity against fluconazole-resistant Candida glabrata 0161 assessed as inhibition of fungal mature biofilm formation at 0.25 to 64 ug/ml incubated for 24 hrs by XXT reduction menadione assay; type: functional, organism-based; conditions: dose 0.25-64 µg/ml
# Nakaseomyces glabratus [10] = experiment: Antifungal activity against fluconazole-resistant Candida glabrata 0161 assessed as fungal growth inhibition at 16 ug/ml incubated for 48 hrs by time-growth curve assay; type: functional, organism-based; conditions: dose 16.0 µg/ml
# Nakaseomyces glabratus [11] = experiment: Synergistic antifungal activity against fluconazole-resistant Candida glabrata 0161 assessed as fractional inhibitory concentration index incubated for 48 hrs in presence of A10 compound by checkerboard microdilution method; type: functional
# Nakaseomyces glabratus [12] = experiment: Synergistic antifungal activity against fluconazole-resistant Candida glabrata 0161 assessed as fractional inhibitory concentration index incubated for 48 hrs in presence of A2 compound by checkerboard microdilution method; type: functional
# Nakaseomyces glabratus [13] = experiment: Antifungal activity against FLC-resistant Candida glabrata 0161 infected in cyclophosphamide immunosuppressed ICR mouse model assessed as pathological change in kidney at 5 mg/kg,ip administrated for 5 days by Hematoxylin and eosin staining based analysis; type: functional, organism-based; conditions: time 5.0 day
# Nakaseomyces glabratus [14] = experiment: Antifungal activity against fluconazole-resistant Candida glabrata 0161 assessed as downregulation of ERG11 gene expression at 32 ug/ml by RT-PCR analysis; type: functional, organism-based; conditions: dose 32.0 µg/ml
# Nakaseomyces glabratus [15] = experiment: Synergistic antifungal activity against fluconazole-resistant Candida glabrata 0161 assessed as fractional inhibitory concentration index incubated for 48 hrs in presence of A7 compound by checkerboard microdilution method; type: functional
# Nakaseomyces glabratus [16] = experiment: Synergistic antifungal activity against fluconazole-resistant Candida glabrata 0161 assessed as fractional inhibitory concentration index incubated for 48 hrs in presence of B6 compound by checkerboard microdilution method; type: functional
# Nakaseomyces glabratus [17] = experiment: Synergistic antifungal activity against fluconazole-resistant Candida glabrata 0161 assessed as fractional inhibitory concentration index incubated for 48 hrs in presence of A14 compound by checkerboard microdilution method; type: functional
# Nakaseomyces glabratus [18] = experiment: Synergistic antifungal activity against fluconazole-resistant Candida glabrata 0161 assessed as inhibition of fungal biofilm formation at 4 ug/ml incubated for 24 hrs in presence of compound B8 by XXT reduction menadione assay; type: functional
# Nakaseomyces glabratus [19] = experiment: Antifungal activity against fluconazole-resistant Candida glabrata 0161 assessed as downregulation of CDR1 gene expression at 32 ug/ml by RT-PCR analysis; type: functional, organism-based; conditions: dose 32.0 µg/ml
# Nakaseomyces glabratus [20] = experiment: Synergistic antifungal activity against fluconazole-resistant Candida glabrata 0161 assessed as fractional inhibitory concentration index incubated for 48 hrs in presence of B8 compound by checkerboard microdilution method; type: functional
# Nakaseomyces glabratus [21] = experiment: Antifungal activity against fluconazole-resistant Candida glabrata 0161 assessed as downregulation of PDR1 gene expression at 32 ug/ml by RT-PCR analysis; type: functional, organism-based; conditions: dose 32.0 µg/ml
# Nakaseomyces glabratus [22] = experiment: Antifungal activity against FLC-resistant Candida glabrata 0161 infected in cyclophosphamide immunosuppressed ICR mouse model assessed as inhibition of fungal growth in kidney at 5 mg/kg,ip administrated for 5 days; type: functional, organism-based; conditions: time 5.0 day
# Nakaseomyces glabratus [23] = experiment: Synergistic antifungal activity against fluconazole-resistant Candida glabrata 0161 assessed as fractional inhibitory concentration index incubated for 48 hrs in presence of A5 compound by checkerboard microdilution method; type: functional
# Nakaseomyces glabratus [24] = experiment: Synergistic antifungal activity against fluconazole-resistant Candida glabrata 0161 assessed as fractional inhibitory concentration index incubated for 48 hrs in presence of A6 compound by checkerboard microdilution method; type: functional
# Nakaseomyces glabratus [25] = experiment: Synergistic antifungal activity against fluconazole-resistant Candida glabrata 0161 assessed as fractional inhibitory concentration index incubated for 48 hrs in presence of A11 compound by checkerboard microdilution method; type: functional
# Nakaseomyces glabratus [26] = experiment: Synergistic antifungal activity against fluconazole-resistant Candida glabrata 0161 assessed as fractional inhibitory concentration index incubated for 48 hrs in presence of B3 compound by checkerboard microdilution method; type: functional
# Nakaseomyces glabratus [27] = experiment: Synergistic antifungal activity against fluconazole-resistant Candida glabrata 0161 assessed as fractional inhibitory concentration index incubated for 48 hrs in presence of B4 compound by checkerboard microdilution method; type: functional
# Nakaseomyces glabratus [28] = experiment: Synergistic antifungal activity against fluconazole-resistant Candida glabrata 0161 assessed as fractional inhibitory concentration index incubated for 48 hrs in presence of A8 compound by checkerboard microdilution method; type: functional
# Nakaseomyces glabratus [29] = experiment: Synergistic antifungal activity against fluconazole-resistant Candida glabrata 0161 assessed as fractional inhibitory concentration index incubated for 48 hrs in presence of A3 compound by checkerboard microdilution method; type: functional
# Nakaseomyces glabratus [30] = experiment: Synergistic antifungal activity against fluconazole-resistant Candida glabrata 0161 assessed as fractional inhibitory concentration index incubated for 48 hrs in presence of B2 compound by checkerboard microdilution method; type: functional
# Nakaseomyces glabratus [31] = experiment: Synergistic antifungal activity against fluconazole-resistant Candida glabrata 0161 assessed as fractional inhibitory concentration index incubated for 48 hrs in presence of A1 compound by checkerboard microdilution method; type: functional
# Nakaseomyces glabratus [32] = experiment: Synergistic antifungal activity against fluconazole-resistant Candida glabrata 0161 assessed as fractional inhibitory concentration index incubated for 48 hrs in presence of B5 compound by checkerboard microdilution method; type: functional
# Nakaseomyces glabratus [33] = experiment: Synergistic antifungal activity against fluconazole-resistant Candida glabrata 0161 assessed as fractional inhibitory concentration index incubated for 48 hrs in presence of A12 compound by checkerboard microdilution method; type: functional
# Nakaseomyces glabratus [34] = experiment: Antifungal activity against fluconazole-resistant Candida glabrata 0161 assessed as downregulation of CDR2 gene expression at 32 ug/ml by RT-PCR analysis; type: functional, organism-based; conditions: dose 32.0 µg/ml
# Nakaseomyces glabratus [35] = experiment: Synergistic antifungal activity against fluconazole-resistant Candida glabrata 0161 assessed as fractional inhibitory concentration index incubated for 48 hrs in presence of A13 compound by checkerboard microdilution method; type: functional
# Nakaseomyces glabratus [36] = experiment: Synergistic antifungal activity against fluconazole-resistant Candida glabrata 0161 assessed as fractional inhibitory concentration index incubated for 48 hrs in presence of A4 compound by checkerboard microdilution method; type: functional
# Nakaseomyces glabratus [37] = experiment: Antifungal activity against fluconazole-resistant Candida glabrata 0161 assessed as inhibition of fungal biofilm formation at 32 ug/ml incubated for 24 hrs by XXT reduction menadione assay; type: functional
# Nakaseomyces glabratus [38] = experiment: Synergistic antifungal activity against fluconazole-resistant Candida glabrata 0161 assessed as fractional inhibitory concentration index incubated for 48 hrs in presence of B7 compound by checkerboard microdilution method; type: functional
# Nakaseomyces glabratus [39] = experiment: Synergistic antifungal activity against fluconazole-resistant Candida glabrata 0161 assessed as fractional inhibitory concentration index incubated for 48 hrs in presence of B1 compound by checkerboard microdilution method; type: functional
# Nakaseomyces glabratus [40] = experiment: Synergistic antifungal activity against fluconazole-resistant Candida glabrata 0161 assessed as fractional inhibitory concentration index incubated for 48 hrs in presence of A9 compound by checkerboard microdilution method; type: functional
# [Candida] auris [41] = Antifungal activity against Candida auris 15448 assessed as fungal growth inhibition incubated for 48 hrs by microplate reader assay; type: functional; conditions: Candidozyma auris
# Nannizzia gypsea = experiment: Antifungal activity against Microsporum gypseum assessed as fungal growth inhibition incubated for 48 hrs by microplate reader assay; type: functional
# Nakaseomyces glabratus [42] = experiment: Antifungal activity against fluconazole-resistant Candida glabrata 9256 assessed as fungal growth inhibition incubated for 48 hrs by microplate reader assay; type: functional
# Candida albicans = experiment: Antifungal activity against Candida albicans assessed as fungal growth inhibition incubated for 48 hrs by microplate reader assay; type: functional
# Candida parapsilosis = experiment: Antifungal activity against Candida parapsilosis 20090 assessed as fungal growth inhibition incubated for 48 hrs by microplate reader assay; type: functional; conditions: Lodderomyces parapsilosis
# Trichophyton rubrum = experiment: Antifungal activity against Trichophyton rubrum assessed as fungal growth inhibition incubated for 48 hrs by microplate reader assay; type: functional
# [Candida] auris [43] = Antifungal activity against Candida auris 0030 assessed as fungal growth inhibition incubated for 48 hrs by microplate reader assay; type: functional; conditions: Candidozyma auris
# Aspergillus fumigatus = experiment: Antifungal activity against Aspergillus fumigatus 7544 assessed as fungal growth inhibition incubated for 48 hrs by microplate reader assay; type: functional
# Candida tropicalis = experiment: Antifungal activity against Candida tropicalis 10186 assessed as fungal growth inhibition incubated for 48 hrs by microplate reader assay; type: functional
# Nakaseomyces glabratus [44] = experiment: Antifungal activity against fluconazole-resistant Candida glabrata 8535 assessed as fungal growth inhibition incubated for 48 hrs by microplate reader assay; type: functional
# Cryptococcus neoformans = experiment: Antifungal activity against Cryptococcus neoformans H99 assessed as fungal growth inhibition incubated for 48 hrs by microplate reader assay; type: functional
smiles,measurement,setting,value
N#CCC(=O)NNC(=S)Nc1ccc(Cl)c(Cl)c1,Activity,Nakaseomyces glabratus [1],Active
same,fractional inhibitory concentration index (FICI),Nakaseomyces glabratus [2],0.31
same,Ki,[3],29.2 µM
same,fluconazole MIC in combination,Nakaseomyces glabratus [4],2 µg/mL
same,solubility,[5],9.12 µg/mL
same,FIC,Nakaseomyces glabratus [6],8 µg/mL
same,MIC,Nakaseomyces glabratus [7],32 µg/mL
same,Kd,[8],2.8 µM
OC(Cn1cncn1)(Cn1cncn1)c1ccc(F)cc1F [FLUCONAZOLE],inhibition,Nakaseomyces glabratus [9],Active
same,Activity,Nakaseomyces glabratus [1],Active
same,Activity,Nakaseomyces glabratus [10],inactive
same,fractional inhibitory concentration index (FICI),Nakaseomyces glabratus [11],0.53
same,fractional inhibitory concentration index (FICI),Nakaseomyces glabratus [12],0.56
same,Activity,Nakaseomyces glabratus [13],Active
same,Activity,Nakaseomyces glabratus [14],inactive
same,fractional inhibitory concentration index (FICI),Nakaseomyces glabratus [15],0.38
same,fractional inhibitory concentration index (FICI),Nakaseomyces glabratus [16],0.53
same,fractional inhibitory concentration index (FICI),Nakaseomyces glabratus [17],0.56
same,inhibition at 4 µg/mL,Nakaseomyces glabratus [18],33%
same,Activity,Nakaseomyces glabratus [19],inactive
same,fractional inhibitory concentration index (FICI),Nakaseomyces glabratus [20],0.28
same,Activity,Nakaseomyces glabratus [21],inactive
same,Activity,Nakaseomyces glabratus [22],inactive
same,fractional inhibitory concentration index (FICI),Nakaseomyces glabratus [23],0.56
same,fractional inhibitory concentration index (FICI),Nakaseomyces glabratus [24],0.25
same,fractional inhibitory concentration index (FICI),Nakaseomyces glabratus [25],0.52
same,fractional inhibitory concentration index (FICI),Nakaseomyces glabratus [26],0.31
same,fractional inhibitory concentration index (FICI),Nakaseomyces glabratus [27],0.31
same,fractional inhibitory concentration index (FICI),Nakaseomyces glabratus [28],0.53
same,fractional inhibitory concentration index (FICI),Nakaseomyces glabratus [29],0.56
same,fractional inhibitory concentration index (FICI),Nakaseomyces glabratus [30],0.29
same,fractional inhibitory concentration index (FICI),Nakaseomyces glabratus [31],0.31
same,MIC,Nakaseomyces glabratus [7],32 µg/mL
same,fractional inhibitory concentration index (FICI),Nakaseomyces glabratus [32],0.76
same,fractional inhibitory concentration index (FICI),Nakaseomyces glabratus [33],0.53
same,Activity,Nakaseomyces glabratus [34],inactive
same,fractional inhibitory concentration index (FICI),Nakaseomyces glabratus [35],0.53
same,fractional inhibitory concentration index (FICI),Nakaseomyces glabratus [36],0.53
same,inhibition at 32 µg/mL,Nakaseomyces glabratus [37],39%
same,fractional inhibitory concentration index (FICI),Nakaseomyces glabratus [38],0.52
same,fractional inhibitory concentration index (FICI),Nakaseomyces glabratus [39],0.53
same,fractional inhibitory concentration index (FICI),Nakaseomyces glabratus [40],0.53
Nc1cc(=O)n(C(=S)Nc2ccc(Cl)nc2)[nH]1,MIC,[Candida] auris [41],2 µg/mL
same,fractional inhibitory concentration index (FICI),Nakaseomyces glabratus [2],0.52
same,Ki,[3],144 µM
same,MIC,Nannizzia gypsea,1 µg/mL
same,MIC,Nakaseomyces glabratus [42],0.25 µg/mL
same,MIC,Candida albicans,4 µg/mL
same,fluconazole MIC in combination,Nakaseomyces glabratus [4],0.5 µg/mL
same,MIC,Candida parapsilosis,4 µg/mL
same,FIC,Nakaseomyces glabratus [6],0.25 µg/mL
same,MIC,Trichophyton rubrum,1 µg/mL
same,MIC,[Candida] auris [43],2 µg/mL
same,MIC,Aspergillus fumigatus,16 µg/mL
same,MIC,Nakaseomyces glabratus [7],0.5 µg/mL
same,MIC,Candida tropicalis,4 µg/mL
same,MIC,Nakaseomyces glabratus [44],0.25 µg/mL
same,MIC,Cryptococcus neoformans,0.063 µg/mL
